In patent US9789111B2, “Casein kinase 1δ (CK 1δ) inhibitors” (Electrophoretics Limited, priority 2010, dated 2017):

Legend:
[1] = target: CLK2 (Homo sapiens, UniProt P49760); experiment: kinase inhibition assay panel; type: biochemical
[2] = target: MSK1/RPS6KA5 (Homo sapiens, UniProt O75582); experiment: kinase inhibition assay panel; type: biochemical
Experimental: (§1) Base Reaction buffer; 20 mM Hepes (pH 7.5), 10 mM MgCl2, 1 mM EGTA, 0.02% Brij35, 0.02 mg/ml BSA, 0.1 mM Na3VO4, 2 mM DTT, 1% DMSO
(§2) It should be noted that required cofactors are added individually to each kinase reaction.
(§3) • 1. Prepare indicated substrate in freshly prepared Base Reaction Buffer as described above • 2. Deliver any required cofactors to the substrate solution • 3. Deliver indicated kinase into the substrate solution and gently mix • 4. Deliver compounds in DMSO into the kinase reaction mixture • 5. Deliver ^33P-ATP (specific activity 0.01 μCi/μl final) into the reaction mixture to initiate the reaction • 6. Incubate kinase reaction for 120 min. at room temperature • 7. Reactions are spotted onto P81 ion exchange paper (Whatman #3698-915) • 8. Wash filters extensively in 0.75% Phosphoric acid Kinase Information: • CK1δ—Genbank Accession # NP_620693 • Recombinant human full-length construct. GST-tagged, expressed in insect cells. • Final concentration in assay=4 nM • Substrate: CK1tide • Substrate sequence: [KRRRAL[pS]VASLPGL] • Final substrate concentration in assay=20 μM • It should be noted that no additional cofactors are added to the reaction mixture.

[3] = target: JNK2 (Homo sapiens, UniProt P45984); experiment: kinase inhibition assay panel; type: biochemical
Experimental: as §1, §2, §3

[4] = target: PKCa (Homo sapiens, UniProt P17252); experiment: kinase inhibition assay panel; type: biochemical
Experimental: as §1, §2, §3

[5] = target: LCK (Homo sapiens, UniProt P06239); experiment: kinase inhibition assay panel; type: biochemical
Experimental: as §1, §2, §3

[6] = target: KDR/VEGFR2 (Homo sapiens, UniProt P35968); experiment: kinase inhibition assay panel; type: biochemical
Experimental: as §1, §2, §3

[7] = target: PKCb2 (Homo sapiens, UniProt P05771); experiment: kinase inhibition assay panel; type: biochemical
Experimental: as §1, §2, §3

[8] = target: TNIK (Homo sapiens, UniProt Q9UKE5); experiment: kinase inhibition assay panel; type: biochemical
Experimental: as §1, §2, §3

[9] = target: CDK5/p25 (Homo sapiens, UniProt Q00535); experiment: kinase inhibition assay panel; type: biochemical
Experimental: as §1, §2, §3

[10] = target: ABL2/ARG (Homo sapiens, UniProt P42684); experiment: kinase inhibition assay panel; type: biochemical
Experimental: as §1, §2, §3

[11] = target: T1, PDK1/PDPK1 (Homo sapiens, UniProt O15530); experiment: kinase inhibition assay panel; type: biochemical
T1 sequence (O15530 1-556): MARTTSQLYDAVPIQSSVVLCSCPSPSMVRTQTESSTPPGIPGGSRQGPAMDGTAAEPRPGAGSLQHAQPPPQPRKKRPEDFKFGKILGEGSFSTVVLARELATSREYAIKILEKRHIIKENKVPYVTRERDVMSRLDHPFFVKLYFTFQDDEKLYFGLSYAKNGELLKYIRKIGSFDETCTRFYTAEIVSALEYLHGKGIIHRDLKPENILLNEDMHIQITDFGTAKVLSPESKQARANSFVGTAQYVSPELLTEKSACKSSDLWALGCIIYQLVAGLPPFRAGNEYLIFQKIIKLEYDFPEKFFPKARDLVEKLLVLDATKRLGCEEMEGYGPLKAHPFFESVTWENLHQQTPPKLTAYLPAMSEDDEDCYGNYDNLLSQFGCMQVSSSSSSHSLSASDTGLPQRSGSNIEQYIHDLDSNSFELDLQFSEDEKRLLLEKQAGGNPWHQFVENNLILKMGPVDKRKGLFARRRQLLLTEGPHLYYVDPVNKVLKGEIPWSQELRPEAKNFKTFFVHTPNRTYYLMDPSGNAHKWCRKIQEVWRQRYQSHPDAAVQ
Experimental: as §1, §2, §3

[12] = target: PIM3 (Homo sapiens, UniProt Q86V86); experiment: kinase inhibition assay panel; type: biochemical
Experimental: as §1, §2, §3

[13] = target: GSK3b (Homo sapiens, UniProt P49841); experiment: kinase inhibition assay panel; type: biochemical
Experimental: as §1, §2, §3

[14] = target: HGK/MAP4K4 (Homo sapiens, UniProt O95819); experiment: kinase inhibition assay panel; type: biochemical
Experimental: as §1, §2, §3

[15] = target: c-SRC (Homo sapiens, UniProt P12931); experiment: kinase inhibition assay panel; type: biochemical
Experimental: as §1, §2, §3

[16] = target: ROCK1 (Homo sapiens, UniProt Q13464); experiment: kinase inhibition assay panel; type: biochemical
Experimental: as §1, §2, §3

[17] = system: Tau phosphorylated at Threonine 231 in SH-SY5Y-TMHT cells; experiment: Western Blot of Tau phosphorylated at Threonine 231; type: cell-based, human; settings: for detectable level of pT231 in Tau protein: 10 μM, Western Blot; for phosphorylation of Thr 231 within Tau proteins: FIG. 5
Experimental: SH-SY5Y-TMHT cells are kept in culture medium (DMEM medium, 10% FCS, 1% NEAA, 1% L-Glutamine, 100 μg/ml Gentamycin, 300 μg/ml Geneticin G-418) for 2 days until 80-90% confluency. Cells are then differentiated in culture medium supplemented with 10 μM retinoic acid (RA) for 7 days changing medium every 2 to 3 days. Differentiated cells are seeded onto 6-well plates and 96-well plates at a cell density of 1.25×10^6 and 8×10^5 cells per well, respectively. On day 8 post-differentiation, the test compounds, reference compounds and vehicle control were added to the culture medium. After 6 h of compound exposure one plate of cells is subjected to a MTT assay to evaluate the effect of test and reference items on cell viability. Remaining wells are washed once with cold PBS and harvested in 300 μl RIPA-Buffer [50 mM Tris pH 7.4, 1% Nonident P40, 0.25% Na-deoxy-cholate, 150 mM NaCl, 1 mM EDTA, 1 μM NaF, 1 μM Na-ortho-vanadate, 80 mM Glycerophosphate, supplemented with freshly added protease (Calbiochem) and phosphatase (Sigma) inhibitor cocktail]. The cell suspension is transferred into a 1.5 ml tube and additionally lysed by sonication on ice. An aliquot of 20 μl is taken for the determination of the protein concentration (BCA assay). Subsequently, the lysates are snap frozen and stored at −80° C. until shipment.
Lysates of treated cells were prepared in Laemmli buffer and 10 μg loaded into each lane of a 10% Nu-PAGE gel (Invitrogen, UK). Samples were run until the coomassie blue dye fromt was within 1 cm of the bottom of the gel. The separated proteins were transferred onto nitrocellulose and blots developed using antibodies specific for total tau (Polyclonal Rabbit Anti-Human Tau, Dako, UK (cat # A0024)) and phopho-Threonine 231 (Tau (Phospho-Thr231) Antibody, Signalway Antibody, USA (cat # 11110)) respectively. In each case the bound antibody was detected using ECL Rabbit IgG, HRP-Linked (from donkey) (GE Healthcare, UK (cat # NA934))

Sequence of JNK2 (P45984 whole entry, species assumed): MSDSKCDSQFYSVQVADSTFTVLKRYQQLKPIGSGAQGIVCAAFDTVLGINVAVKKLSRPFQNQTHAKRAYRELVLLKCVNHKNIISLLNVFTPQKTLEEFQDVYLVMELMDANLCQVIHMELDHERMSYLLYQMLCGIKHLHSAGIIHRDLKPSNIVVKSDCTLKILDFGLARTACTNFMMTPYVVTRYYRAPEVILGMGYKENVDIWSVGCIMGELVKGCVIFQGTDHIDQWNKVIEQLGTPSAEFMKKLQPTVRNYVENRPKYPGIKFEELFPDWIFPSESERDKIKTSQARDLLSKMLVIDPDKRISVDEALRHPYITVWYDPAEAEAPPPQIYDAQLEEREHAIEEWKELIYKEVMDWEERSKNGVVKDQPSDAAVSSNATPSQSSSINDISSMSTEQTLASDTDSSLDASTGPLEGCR
Sequence of ABL2/ARG (P42684 whole entry): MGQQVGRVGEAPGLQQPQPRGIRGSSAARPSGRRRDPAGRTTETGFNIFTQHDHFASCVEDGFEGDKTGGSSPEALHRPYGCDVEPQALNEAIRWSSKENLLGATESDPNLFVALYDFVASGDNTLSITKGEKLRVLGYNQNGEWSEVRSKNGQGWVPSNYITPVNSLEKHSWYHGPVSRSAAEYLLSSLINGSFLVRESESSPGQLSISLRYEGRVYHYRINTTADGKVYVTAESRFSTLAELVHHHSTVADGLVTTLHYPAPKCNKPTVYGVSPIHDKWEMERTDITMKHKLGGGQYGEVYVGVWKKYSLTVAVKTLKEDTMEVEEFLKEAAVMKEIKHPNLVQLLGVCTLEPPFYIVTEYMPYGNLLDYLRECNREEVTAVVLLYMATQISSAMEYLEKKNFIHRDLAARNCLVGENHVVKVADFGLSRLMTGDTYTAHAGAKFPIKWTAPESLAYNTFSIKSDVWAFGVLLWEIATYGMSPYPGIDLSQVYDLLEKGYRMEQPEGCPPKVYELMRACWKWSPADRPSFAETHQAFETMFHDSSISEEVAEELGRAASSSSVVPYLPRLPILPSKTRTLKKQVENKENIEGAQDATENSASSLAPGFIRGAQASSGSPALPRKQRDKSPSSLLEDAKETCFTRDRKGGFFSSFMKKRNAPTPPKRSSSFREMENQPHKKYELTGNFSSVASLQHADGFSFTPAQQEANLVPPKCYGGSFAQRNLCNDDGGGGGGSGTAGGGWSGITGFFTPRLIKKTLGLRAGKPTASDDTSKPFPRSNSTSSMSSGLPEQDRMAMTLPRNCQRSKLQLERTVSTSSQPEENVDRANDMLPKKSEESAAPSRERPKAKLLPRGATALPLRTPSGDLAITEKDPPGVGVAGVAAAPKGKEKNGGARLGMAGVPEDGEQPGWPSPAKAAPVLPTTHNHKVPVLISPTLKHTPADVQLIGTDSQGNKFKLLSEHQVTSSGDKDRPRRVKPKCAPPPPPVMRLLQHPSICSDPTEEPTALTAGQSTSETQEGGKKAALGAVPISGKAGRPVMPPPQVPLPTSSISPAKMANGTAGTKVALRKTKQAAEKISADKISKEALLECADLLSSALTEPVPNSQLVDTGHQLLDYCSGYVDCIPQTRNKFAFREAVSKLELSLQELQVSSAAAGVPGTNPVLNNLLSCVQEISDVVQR
Sequence of GSK3b (P49841 whole entry, species assumed): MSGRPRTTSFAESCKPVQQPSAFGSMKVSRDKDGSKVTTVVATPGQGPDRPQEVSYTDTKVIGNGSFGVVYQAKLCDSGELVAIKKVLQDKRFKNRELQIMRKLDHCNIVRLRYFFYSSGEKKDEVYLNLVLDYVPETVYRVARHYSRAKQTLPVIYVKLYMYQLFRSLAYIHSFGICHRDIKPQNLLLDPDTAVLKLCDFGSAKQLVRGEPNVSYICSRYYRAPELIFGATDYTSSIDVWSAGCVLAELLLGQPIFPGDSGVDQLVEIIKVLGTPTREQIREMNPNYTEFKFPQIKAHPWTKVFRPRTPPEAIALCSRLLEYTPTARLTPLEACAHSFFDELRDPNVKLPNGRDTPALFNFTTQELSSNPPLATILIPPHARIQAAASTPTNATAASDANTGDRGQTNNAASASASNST
Sequence of TNIK (Q9UKE5 whole entry, species assumed): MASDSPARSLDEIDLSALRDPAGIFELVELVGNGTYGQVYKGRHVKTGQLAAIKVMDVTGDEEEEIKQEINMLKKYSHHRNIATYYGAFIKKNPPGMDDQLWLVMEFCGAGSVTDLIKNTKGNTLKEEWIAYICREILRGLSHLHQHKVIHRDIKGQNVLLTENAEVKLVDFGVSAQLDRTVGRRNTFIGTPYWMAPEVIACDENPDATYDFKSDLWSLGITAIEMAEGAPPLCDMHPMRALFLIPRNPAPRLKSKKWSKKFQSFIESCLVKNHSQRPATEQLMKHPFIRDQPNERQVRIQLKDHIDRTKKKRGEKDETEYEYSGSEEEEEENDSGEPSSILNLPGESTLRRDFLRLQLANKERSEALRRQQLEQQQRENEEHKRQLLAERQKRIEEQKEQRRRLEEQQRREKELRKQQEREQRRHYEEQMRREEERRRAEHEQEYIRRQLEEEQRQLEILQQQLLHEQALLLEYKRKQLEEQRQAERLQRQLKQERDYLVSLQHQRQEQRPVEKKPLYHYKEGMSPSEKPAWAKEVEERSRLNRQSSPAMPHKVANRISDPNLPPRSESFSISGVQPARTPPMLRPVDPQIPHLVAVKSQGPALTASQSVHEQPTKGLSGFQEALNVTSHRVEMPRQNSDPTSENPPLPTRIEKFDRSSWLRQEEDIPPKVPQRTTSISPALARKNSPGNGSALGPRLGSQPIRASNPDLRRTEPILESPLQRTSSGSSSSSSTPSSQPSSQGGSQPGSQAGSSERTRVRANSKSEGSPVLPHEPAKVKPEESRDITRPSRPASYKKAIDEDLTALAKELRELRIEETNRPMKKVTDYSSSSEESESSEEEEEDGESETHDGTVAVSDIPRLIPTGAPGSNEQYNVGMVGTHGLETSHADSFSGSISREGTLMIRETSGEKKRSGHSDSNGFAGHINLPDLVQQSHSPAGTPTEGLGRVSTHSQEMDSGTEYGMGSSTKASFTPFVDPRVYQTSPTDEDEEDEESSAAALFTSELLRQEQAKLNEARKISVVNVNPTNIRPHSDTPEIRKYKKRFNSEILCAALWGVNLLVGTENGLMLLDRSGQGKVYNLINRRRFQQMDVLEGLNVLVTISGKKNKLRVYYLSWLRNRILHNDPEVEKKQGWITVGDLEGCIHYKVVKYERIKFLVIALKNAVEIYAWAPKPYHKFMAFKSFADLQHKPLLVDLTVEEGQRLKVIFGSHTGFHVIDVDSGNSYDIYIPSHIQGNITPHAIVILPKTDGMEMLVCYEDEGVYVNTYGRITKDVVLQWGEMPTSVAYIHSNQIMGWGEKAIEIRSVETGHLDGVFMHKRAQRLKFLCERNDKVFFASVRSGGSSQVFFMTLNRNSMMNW
Sequence of ROCK1 (Q13464 whole entry, species assumed): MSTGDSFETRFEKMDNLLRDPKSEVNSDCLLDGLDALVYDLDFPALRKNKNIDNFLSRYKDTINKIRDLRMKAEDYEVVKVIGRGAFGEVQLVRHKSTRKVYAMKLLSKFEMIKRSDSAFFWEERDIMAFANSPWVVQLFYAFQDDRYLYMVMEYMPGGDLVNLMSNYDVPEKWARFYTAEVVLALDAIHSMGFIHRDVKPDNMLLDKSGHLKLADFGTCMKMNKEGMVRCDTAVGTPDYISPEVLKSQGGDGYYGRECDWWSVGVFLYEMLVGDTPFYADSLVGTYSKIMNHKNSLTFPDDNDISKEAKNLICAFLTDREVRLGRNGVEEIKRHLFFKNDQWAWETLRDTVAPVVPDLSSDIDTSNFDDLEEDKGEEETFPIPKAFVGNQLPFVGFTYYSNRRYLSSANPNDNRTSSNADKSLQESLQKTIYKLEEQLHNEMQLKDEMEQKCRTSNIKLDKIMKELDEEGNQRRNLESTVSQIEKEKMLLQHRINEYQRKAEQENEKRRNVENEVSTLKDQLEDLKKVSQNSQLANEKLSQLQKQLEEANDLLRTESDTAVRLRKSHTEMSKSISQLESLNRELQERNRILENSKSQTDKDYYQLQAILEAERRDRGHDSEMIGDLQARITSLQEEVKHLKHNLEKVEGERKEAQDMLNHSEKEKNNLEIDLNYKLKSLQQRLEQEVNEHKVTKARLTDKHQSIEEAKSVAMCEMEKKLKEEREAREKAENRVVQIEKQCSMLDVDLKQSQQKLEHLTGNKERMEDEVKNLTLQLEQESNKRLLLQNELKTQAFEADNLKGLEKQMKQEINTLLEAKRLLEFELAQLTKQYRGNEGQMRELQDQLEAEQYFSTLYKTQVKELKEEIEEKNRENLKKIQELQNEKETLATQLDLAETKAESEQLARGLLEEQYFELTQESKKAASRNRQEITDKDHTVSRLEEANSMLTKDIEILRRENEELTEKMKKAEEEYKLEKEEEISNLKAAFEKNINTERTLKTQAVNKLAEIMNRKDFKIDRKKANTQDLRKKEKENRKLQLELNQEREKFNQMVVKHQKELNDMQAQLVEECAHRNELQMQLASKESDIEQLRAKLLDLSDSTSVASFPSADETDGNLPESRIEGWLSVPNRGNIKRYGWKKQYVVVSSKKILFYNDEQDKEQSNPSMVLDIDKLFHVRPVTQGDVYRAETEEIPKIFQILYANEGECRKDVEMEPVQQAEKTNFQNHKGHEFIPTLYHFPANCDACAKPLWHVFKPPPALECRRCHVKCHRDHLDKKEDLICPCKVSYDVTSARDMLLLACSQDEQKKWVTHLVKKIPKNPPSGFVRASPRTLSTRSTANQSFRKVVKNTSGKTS

inhibition of CLK2 [1] | inhibition of MSK1/RPS6KA5 [2] | inhibition of JNK2 [3] | inhibition of PKCa [4] | inhibition of LCK [5] | inhibition of KDR/VEGFR2 [6] | inhibition of PKCb2 [7] | inhibition of TNIK [8] | inhibition of CDK5/p25 [9] | inhibition of ABL2/ARG [10] | inhibition of PDK1/PDPK1 [11] | inhibition of PIM3 [12] | inhibition of GSK3b [13] | inhibition of HGK/MAP4K4 [14] | inhibition of c-SRC [15] | inhibition of ROCK1 [16] | Structure (SMILES) | detectable level of pT231 in Tau protein [17] | phosphorylation of Thr 231 within Tau proteins [17]
lower than 40% | lower than 40% | lower than 40% | lower than 40% | lower than 40% | lower than 40% | lower than 40% | lower than 40% | lower than 40% | lower than 40% | lower than 40% | lower than 40% | lower than 40% | lower than 40% | lower than 40% | lower than 40% | NC(=O)c1c(N)c(C(=O)c2ccc(F)cc2)n2ccccc12 [Compound 987, 2-amino-3-[(4-fluorophenyl)carbonyl]indolizine-1-carboxamide] | reduced the detectable level of pT231 | inhibit phosphorylation
lower than 40% | lower than 40% | lower than 40% | lower than 40% | lower than 40% | lower than 40% | lower than 40% | lower than 40% | lower than 40% | lower than 40% | lower than 40% | lower than 40% | lower than 40% | lower than 40% | lower than 40% | lower than 40% | Nc1ncc(-c2nc3ccccc3o2)c(-c2ccncc2)n1 [Compound 324, 5-(1,3-benzoxazol-2-yl)-4-(pyridin-4-yl)pyrimidin-2-amine] | reduced the detectable level of pT231 | inhibit phosphorylation
